Among the test systems are A549 NSCLC; HCT-15 colon; KM12 colon; NCI-H23 lung; NCI-H522 lung; SF-539 CNS; SK-OV-3 ovarian; SN12C renal; SNB-19 CNS; SW-620 colon.
Assay in all cases: DTP human tumour cell line panel, 48 h

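Five concentrations, 48 hours, 96-well plates. The concentration for 50% growth inhibition is given as GI50. TGI denotes the concentration required for complete inhibition of growth.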 Where only a bound is given, the exact number is not on record here.

On to `CC(=O)O[C@H]1CC[C@@]2(C)[C@@H](CC[C@@H]3[C@@H]2CC[C@]2(C)C=C(C=O)C[C@@H]32)C1`, for which the GI50 (in general, the concentration that inhibits growth by half) was 25.8 µM in the experiment on A549 NSCLC; 2.26 µM in the experiment with HCT-15 colon; 12.7 µM in the experiment with KM12 colon; 10.5 µM in the experiment on NCI-H23 lung; 21.1 µM in the experiment with NCI-H522 lung; 3.66 µM in the experiment on SF-539 CNS. Moreover, the GI50 with SK-OV-3 ovarian was 9.67 µM; in the experiment with SN12C renal, 3.42 µM; in the experiment on SNB-19 CNS, 14.5 µM; in the experiment on SW-620 colon it was 3.42 µM. Also, the TGI (usually the concentration at which net growth stops) in the experiment with A549 NSCLC is more than 100 µM; with HCT-15 colon it was 12.1 µM; with KM12 colon, 30 µM; with NCI-H23 lung, 31.1 µM; in the experiment on NCI-H522 lung, 45.6 µM; in the experiment on SF-539 CNS, 12.7 µM. Further, the TGI stood at 21.7 µM with SK-OV-3 ovarian, 10.6 µM in the experiment with SN12C renal, 30.8 µM in the experiment on SNB-19 CNS and 10.7 µM in the experiment on SW-620 colon.

On to `CCCCNC(=O)NS(=O)(=O)c1ccc(N2N=C(c3cc(C)ccc3C)CC2c2cc(OC)c(OC)c(OC)c2)cc1` (stereo not given), for which the GI50 was 2.53 µM in the experiment on A549 NSCLC; 2.81 µM with HCT-15 colon; 2.25 µM in the experiment with KM12 colon; 2.35 µM with NCI-H23 lung; 2.39 µM in the experiment with NCI-H522 lung; 1.9 µM with SF-539 CNS. Also, the GI50 is 3.53 µM in the experiment with SK-OV-3 ovarian, 3.36 µM in the experiment with SN12C renal, 2.75 µM in the experiment on SNB-19 CNS and 3.26 µM in the experiment with SW-620 colon. The TGI with A549 NSCLC is 9.78 µM; with HCT-15 colon, 11.1 µM; in the experiment on KM12 colon, 5.26 µM; in the experiment on NCI-H23 lung, 6.22 µM; in the experiment on NCI-H522 lung, 7.75 µM; with SF-539 CNS it was 3.88 µM. In addition, the TGI in the experiment with SK-OV-3 ovarian stood at 10.1 µM; in the experiment on SN12C renal, 13.4 µM; in the experiment with SNB-19 CNS, 12.7 µM; with SW-620 colon, 12.8 µM.

For the compound `COc1cc(C(=O)/C=C/c2cccnc2Nc2ccccc2)cc(OC)c1OC`, the GI50 in the experiment with A549 NSCLC is 1.3 µM; with HCT-15 colon, 0.744 µM; in the experiment on KM12 colon it was 0.929 µM; with NCI-H23 lung, 1.43 µM; with NCI-H522 lung, 0.493 µM; in the experiment on SF-539 CNS it was 1.65 µM. Besides, the GI50 in the experiment on SK-OV-3 ovarian is 1.6 µM; in the experiment with SN12C renal, 1.21 µM; in the experiment on SNB-19 CNS, 1.48 µM; in the experiment on SW-620 colon, 0.422 µM. Also, the TGI in the experiment on A549 NSCLC turned out to be 2.86 µM; in the experiment with HCT-15 colon it was 2.4 µM; in the experiment on KM12 colon it was 2.54 µM; with NCI-H23 lung, 3 µM; in the experiment on NCI-H522 lung, 1.76 µM; with SF-539 CNS, 3.12 µM. For the same compound, the TGI amounted to 2.94 µM in the experiment on SK-OV-3 ovarian, 2.55 µM in the experiment on SN12C renal, 2.86 µM in the experiment on SNB-19 CNS and 1.66 µM in the experiment on SW-620 colon.

Consider `O=C(COc1cccc(/C=C2\COc3ccc(Cl)cc3C2=O)c1)c1ccc(Cl)cc1`, for which the GI50 in the experiment on A549 NSCLC is 16.3 µM; in the experiment on HCT-15 colon, 12.2 µM; in the experiment on KM12 colon, 2.79 µM; with NCI-H23 lung it was 13.4 µM; with NCI-H522 lung it was 11.7 µM; in the experiment on SF-539 CNS, 15.4 µM. Besides, the GI50 is 18.4 µM with SK-OV-3 ovarian, 13.7 µM in the experiment on SN12C renal, 14.5 µM with SNB-19 CNS and 3.3 µM with SW-620 colon. Moreover, the concentration for total growth inhibition (TGI) with A549 NSCLC was found to be 32.1 µM; with HCT-15 colon it was 24.7 µM; in the experiment on KM12 colon, 11.2 µM; in the experiment on NCI-H23 lung, 26.4 µM; in the experiment on NCI-H522 lung, 27.2 µM; with SF-539 CNS, 28.7 µM. Also, the concentration for total growth inhibition (TGI) with SK-OV-3 ovarian was 45.6 µM; in the experiment with SN12C renal, 28.5 µM; with SNB-19 CNS, 27.7 µM; in the experiment with SW-620 colon it was 13 µM.

Regarding `COc1cccc2nc3cc(C)c(C)cc3nc12`, the TGI in the experiment with A549 NSCLC, in the experiment on HCT-15 colon, in the experiment with KM12 colon, in the experiment with NCI-H23 lung, in the experiment on NCI-H522 lung and with SF-539 CNS was more than 100 µM in each case. Further, the TGI in the experiment with SK-OV-3 ovarian, with SN12C renal, in the experiment with SNB-19 CNS and in the experiment with SW-620 colon was more than 100 µM each time.

As for `c1ccc(CSc2nnc3c4ccccc4c4ccccc4c3n2)cc1`, the TGI in the experiment on A549 NSCLC is more than 100 µM; with HCT-15 colon, more than 100 µM; with KM12 colon it was more than 100 µM; in the experiment on NCI-H23 lung, more than 100 µM; with NCI-H522 lung, 97.9 µM; in the experiment on SF-539 CNS, more than 100 µM. Further, the TGI is 50 µM in the experiment on SK-OV-3 ovarian, more than 100 µM in the experiment on SN12C renal, more than 78.1 µM in the experiment with SNB-19 CNS and more than 100 µM in the experiment with SW-620 colon.

`COC(=O)C1=C(OC(=O)c2ccc(Cl)cc2)C(C(=O)OC)[C@@]2(O)[C@@H](C(=O)OC)C(c3ccccc3Cl)C[C@@H]1[C@@H]2C(=O)OC` (stereo not given in full): the GI50 was 3.16 µM in the experiment with A549 NSCLC; 3.04 µM in the experiment on HCT-15 colon; 2.81 µM with KM12 colon; 3.23 µM with NCI-H23 lung; 2.77 µM in the experiment on NCI-H522 lung; 12.4 µM in the experiment on SF-539 CNS. Also, the GI50 in the experiment on SK-OV-3 ovarian is 19.8 µM; in the experiment with SN12C renal, 4.22 µM; in the experiment on SNB-19 CNS, 24.1 µM; in the experiment with SW-620 colon it was 4.54 µM. The total growth inhibition concentration (TGI) with A549 NSCLC was more than 100 µM; in the experiment with HCT-15 colon it was more than 100 µM; in the experiment with KM12 colon, 50.8 µM; in the experiment with NCI-H23 lung, more than 100 µM; with NCI-H522 lung, 7.92 µM; in the experiment with SF-539 CNS, 61 µM. Besides, the total growth inhibition concentration (TGI) was 91.9 µM with SK-OV-3 ovarian, 31 µM in the experiment on SN12C renal, more than 100 µM in the experiment on SNB-19 CNS and more than 100 µM in the experiment on SW-620 colon.

Regarding `CC1(C)CC[C@]2(C(=O)N3CCOCC3)CC[C@]3(C)C(=CC[C@@H]4[C@@]5(C)C/C(=C/c6ccncc6)C(=O)C(C)(C)[C@@H]5CC[C@]43C)[C@@H]2C1`, the GI50 is 1.22 µM in the experiment with A549 NSCLC; 0.939 µM with HCT-15 colon; 2.7 µM in the experiment on KM12 colon; 2.41 µM in the experiment on NCI-H23 lung; 1.3 µM in the experiment on NCI-H522 lung; 1.73 µM in the experiment on SF-539 CNS. The GI50 with SK-OV-3 ovarian was 3.58 µM; in the experiment on SN12C renal, 2.37 µM; in the experiment with SNB-19 CNS, 6.93 µM; with SW-620 colon it was 2.29 µM. For the same compound, the TGI in the experiment with A549 NSCLC was more than 100 µM; in the experiment on HCT-15 colon, 11 µM; in the experiment with KM12 colon it was more than 100 µM; with NCI-H23 lung it was more than 100 µM; in the experiment with NCI-H522 lung, 6.72 µM; in the experiment with SF-539 CNS, 3.7 µM. For the same compound, the concentration for total growth inhibition (TGI) in the experiment with SK-OV-3 ovarian is more than 100 µM; in the experiment with SN12C renal it was 20.6 µM; with SNB-19 CNS, 27.7 µM; in the experiment with SW-620 colon it was more than 100 µM.

As for `CCC1CCc2c(OC)ccc(OCC(=O)O)c2C1=O` (stereo not given), the TGI in the experiment on A549 NSCLC, in the experiment with HCT-15 colon, with KM12 colon, in the experiment with NCI-H23 lung, in the experiment on NCI-H522 lung and in the experiment with SF-539 CNS was more than 100 µM throughout. The TGI in the experiment with SK-OV-3 ovarian, with SN12C renal, with SNB-19 CNS and with SW-620 colon was more than 100 µM in each case.
